Experimental data reported in patent US6342217B1, “Radiation enhanced gene therapy for tumors expressing a gene for a viral pyrimidine kinase in the presence of a 5′-halogenated pyrimidine” (Human Gene Therapy Research Institute, priority 1995, dated 2002).

Experiments:
[1] = tested on: A375NV (no vector) melanoma cells; assay: in vitro clonogenic assay of radiosensitivity, non-transduced cells; type: cell-based, human
From the text: (§1) For this example, a vector, termed LNSTK was kindly provided by F. Moolten which contained the HS-tk gene driven by the SV40 early promoter. Other transformation vectors containing the HS-tk retroviral vector such as the LTKOSN.2 vector by the Human Gene Therapy Research Institute (Des Moines, Iowa) are commercially available. Another such vector is the GITkSvNa vector by Genetic Therapy Inc., Gaithersburg, Md. A human A375 melanoma cell line was used because of its ease of growth and rapid colony formation in a clonogenic assay. The survival of A375NV (no vector) and A375TK (transduced with LNStk vector) after 30 GY of gamma-radiation with 0,1, or 10 µg/ml IdC is shown in FIG. 2.
(§2) […] cells were plated in a 100 cm^2 tissue culture dish in free media. The next day drug was added in the appropriate concentration. 48 hours later the cells were irradiated with 30 GY from a 250 KV X-ray machine as a single dose. The cells were then trypsinized and replated at between 2.5×10^2 and 1×10^6 cells per plate in triplicate for each data point. After twelve days the cells were fixed, stained and macroscopic colonies containing […] were counted. Measurements in the graph were corrected for plating efficiency. […] Irradiated A375 NV preincubated with 0,1 or 10 μg/ml of IdC had 18.6, 19.3 and 18.3 percent survival respectively. Irradiated A375 tk cells preincubated with 0,1, or 10 μg/ml of IdC had 15.7, 9.9 and 4.4 percent survival respectively.
(§3) In FIG. 3 another experiment is shown, design similar to Example 1. This experiment compared radio sensitivity of A375 NV and A375 tk cells after preincubation with 10 μg/ml of BrdC for 48 hours before X-ray exposure. […] Survival percentages for cells incubated with 10 μg of BrdC and then irradiated with 30 Gy were divided by the survival fraction of cells incubated with 10 μg/ml of BrdC and then mock irradiated.

[2] = tested on: A375TK (transduced with LNStk vector) melanoma cells; assay: in vitro clonogenic assay of radiosensitivity, HS-tk transduced cells; type: cell-based, human; settings: for survival (figure legend): cells transformed with the STK vector, drug and radiation
From the text: as §1, §2, §3

[3] = tested on: mixture of 50% A375 NV and 50% A375 HS-tk cells; assay: clonogenic assay of bystander effect, mixed cells at high density; type: cell-based, human; settings: 10 μg/ml, 30 Gy
Method: Without wishing to be bound by any theory it is hypothesized that HSV-tk transduced tumor cells are able to sensitize non transduced tumor cells in their vicinity through a bystander effect via metabolic cooperation. Specifically, cells that are not transduced with HS-tk gene can also be sensitized to radiation. […] These cells were plated at a density of 3×10^6 cells per 100 cm^2 tissue culture dish the afternoon prior to adding 10 μg/ml BrdC to the media. […] In contrast the experimentally obtained survival for this mixture of cells when plated together at high density was only 6.2%.

[4] = molecular target: mammalian deoxycytidine kinase (Homo sapiens, UniProt P27707); settings: with respect to mammalian deoxycytidine kinase; cited from earlier work
[5] = molecular target: T1, Mammalian thymidine kinase (Homo sapiens, UniProt P04183); settings: cited from earlier work
T1 sequence (P04183 1-234): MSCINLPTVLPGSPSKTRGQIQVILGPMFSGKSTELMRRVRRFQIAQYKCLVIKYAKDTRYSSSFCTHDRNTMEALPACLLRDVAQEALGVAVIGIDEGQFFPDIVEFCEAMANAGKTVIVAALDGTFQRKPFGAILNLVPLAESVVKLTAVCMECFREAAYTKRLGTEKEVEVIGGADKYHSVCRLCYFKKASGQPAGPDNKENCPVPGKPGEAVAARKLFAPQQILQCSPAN

[6] = molecular target: Herpes pyrimidine nucleoside kinase (HSV-tk) (Human herpesvirus 1, UniProt P0DTH5); settings: with respect to Herpes pyrimidine nucleoside kinase / HSV-tk; cited from earlier work
mammalian cells = settings: cited from earlier work
[7] = irradiated (30 Gy) A375 tk preincubated with 10 μg/ml, before adjustment
[8] = non irradiated A375 tk, 10 μg/ml drug 48 h, compared to non-irradiated control cells not preincubated with drug

Herpes pyrimidine nucleoside kinase (HSV-tk), sequence (P0DTH5 whole entry): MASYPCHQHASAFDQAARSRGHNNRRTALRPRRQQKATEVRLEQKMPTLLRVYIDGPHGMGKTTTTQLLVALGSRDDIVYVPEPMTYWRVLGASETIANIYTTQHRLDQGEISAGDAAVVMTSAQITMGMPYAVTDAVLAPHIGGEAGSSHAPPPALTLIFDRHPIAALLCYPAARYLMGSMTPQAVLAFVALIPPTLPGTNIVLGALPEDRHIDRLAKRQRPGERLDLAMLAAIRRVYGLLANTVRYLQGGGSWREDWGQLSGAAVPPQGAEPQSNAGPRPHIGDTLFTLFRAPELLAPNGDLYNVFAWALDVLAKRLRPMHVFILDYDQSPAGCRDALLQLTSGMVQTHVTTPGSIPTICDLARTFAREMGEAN
mammalian deoxycytidine kinase, sequence (P27707 whole entry): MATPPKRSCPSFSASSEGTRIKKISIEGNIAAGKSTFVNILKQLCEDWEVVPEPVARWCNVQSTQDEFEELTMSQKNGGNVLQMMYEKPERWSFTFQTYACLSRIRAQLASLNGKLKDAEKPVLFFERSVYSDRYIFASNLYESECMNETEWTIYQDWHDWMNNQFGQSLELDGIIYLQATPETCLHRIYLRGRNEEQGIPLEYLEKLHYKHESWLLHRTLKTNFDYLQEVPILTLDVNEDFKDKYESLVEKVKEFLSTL

| SMILES | survival (figure legend) [2] | percent survival [2, 7] | survival [2, 8] | Km [4] | phosphorylation by mammalian thymidine kinase [5] | Km [6] | also measured |
| --- | --- | --- | --- | --- | --- | --- | --- |
| Nc1nc(=O)n([C@H]2C[C@H](O)[C@@H](CO)O2)cc1Br [BrdC, 5-bromo-2′-deoxycytidine] | less than 10% | 2.3% | 33% | 2100 µM | cannot phosphorylate | 2 µM | survival ([1]; 100% A375 NV plated at 3×10^6 cells per dish (about 90% confluent), 10 μg/ml, 30 Gy): 13.1%; adjusted survival (irradiated survival divided by nonirradiated surviving fraction) ([1]; A375 NV, 10 μg/ml, 30 Gy): 9%; survival ([2]; 100% A375 tk plated at 3×10^6 cells per dish (about 90% confluent), 10 μg/ml, 30 Gy): 3.5%; adjusted survival (irradiated survival divided by nonirradiated surviving fraction) ([2]; A375 tk, 10 μg/ml, 30 Gy): 6.9%; experimentally obtained survival of the mixture ([3]; 50% A375 tk and 50% A375 NV plated together at high density): 6.2%; expected survival of the mixture (half of tk plus half of NV survival) ([3]; 50% A375 tk and 50% A375 NV, theoretical): 8.3% |
| Nc1ccn([C@H]2C[C@H](O)[C@@H](CO)O2)c(=O)n1 [Deoxycytidine, deoxycytidine, reference compound] | – | – | – | – | – | 500 µM | – |
| Nc1nc(=O)n([C@H]2C[C@H](O)[C@@H](CO)O2)cc1I [IdC, 5-iodo-2′-deoxycytidine] | less than 10% | 4.4% | 54% | 4000 µM | cannot phosphorylate | 2 µM | radiation potentiation in the absence of the HS-tk gene ([1]; IdC 1 or 10 μg/ml, 30 Gy): no degree radiation potentiation was seen; percent survival ([1]; irradiated (30 Gy) A375 NV preincubated with 1 μg/ml): 19.3%; percent survival ([1]; irradiated (30 Gy) A375 NV preincubated with 10 μg/ml): 18.3%; survival ([1]; non irradiated A375 NV, 10 μg/ml drug 48 h, compared to non-irradiated control cells not preincubated with drug): 73%; survival (figure legend) ([1]; nontransformed cells treated with radiation): approximately 50%; percent survival ([2]; irradiated (30 Gy) A375 tk preincubated with 1 μg/ml): 9.9% |
| O=C1NC(O)CCN1[C@@H]1O[C@H](CO)[C@@H](O)[C@H]1O (some centres unmarked) [Tetrahydrouridine, tetrahydrouridine] | – | – | – | – | – | – | safety in mammalian cells (mammalian cells): safe and non toxic |
